Experimental data as given in article PMC9721424, “Novel N-methylsulfonyl-indole derivatives: biological activity and COX-2/5-LOX inhibitory effect with improved gastro protective profile and reduced cardio vascular risks” (Journal of Enzyme Inhibition and Medicinal Chemistry, 2022).

Molecular target: T1, COX-2 (Ovis aries, UniProt P79208)
T1 sequence (P79208 17-603): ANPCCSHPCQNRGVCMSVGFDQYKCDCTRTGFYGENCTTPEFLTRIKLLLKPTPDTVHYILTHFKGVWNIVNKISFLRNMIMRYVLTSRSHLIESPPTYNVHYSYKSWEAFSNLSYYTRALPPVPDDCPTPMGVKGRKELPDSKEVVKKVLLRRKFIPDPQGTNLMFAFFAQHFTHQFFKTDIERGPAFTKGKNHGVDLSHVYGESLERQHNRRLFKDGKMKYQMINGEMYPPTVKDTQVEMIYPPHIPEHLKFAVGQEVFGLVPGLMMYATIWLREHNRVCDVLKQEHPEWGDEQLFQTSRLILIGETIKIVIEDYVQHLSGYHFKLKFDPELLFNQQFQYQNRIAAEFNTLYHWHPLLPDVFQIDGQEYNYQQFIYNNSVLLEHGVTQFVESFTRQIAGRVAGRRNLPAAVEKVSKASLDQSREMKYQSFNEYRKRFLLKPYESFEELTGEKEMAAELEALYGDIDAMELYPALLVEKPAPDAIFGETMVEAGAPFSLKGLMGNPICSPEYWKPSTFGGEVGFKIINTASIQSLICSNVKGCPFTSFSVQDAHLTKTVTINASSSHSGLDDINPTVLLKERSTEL
Assay: COX-2 inhibition, enzyme immune assay (EIA) kit
Assay type: biochemical, ovine
Conditions: lab report, COX1/COX2
`CCNC(=S)N/N=C/c1cn(S(C)(=O)=O)c2ccccc12` [Compound 4b, (E)-N-Ethyl-2{[1-(methylsulfonyl)-1H-indol-3yl]methylene}-hydrazinecarbothioamide] gave an SI of 0.236.

Test system: not given
Assay: not given
Conditions: not given
`CCNC(=S)N/N=C/c1cn(S(C)(=O)=O)c2ccccc12` [Compound 4b, (E)-N-Ethyl-2{[1-(methylsulfonyl)-1H-indol-3yl]methylene}-hydrazinecarbothioamide] showed a melting point of 240 to 242 °C.

Test system: not listed separately
Assay: DPPH free radical assay
Assay type: biochemical
Conditions: 540 nm, 30 min, relative to Trolox
Protocol: Preparation of samples was occurred at the following concentrations: Samples 3a, 4a, 5b, 5d and 5e at final concentrations of 0.5 mg/ml in methanol: DMSO 9:1 v/v. Samples 4b and 4d at final concentrations 0.025 mg/ml in methanol: DMSO 9:1 v/v, sample 5a at final concentrations 0.25 mg/ml in methanol: DMSO 9:1 v/v, Sample 4c, 5c and 4e at final concentrations 0.05 mg/ml in methanol: DMSO 9:1 v/v, sample 3b at final concentration 0.75 mg/ml methanol: DMSO 9:1 v/v. A stock solution of 100 µM concentration of Trolox, a standard used in this experiment, was prepared in methanol from which seven concentrations were prepared, including 50, 40, 30, 20, 15, 10 and 5 µM.
The DPPH (2,2-diphenyl-1-picryl-hydrazyl-hydrate) free radical assay was carried out according to the method of Boly et al. 2016[39]. Briefly, freshly prepared DPPH reagent (100 µl, 0.1% in methanol) was added to 100 µl of the sample on 96 well plates (n = 6). The reaction was incubated at room temp for 30 min in the dark. After completion of the incubation time, the reduction in DPPH colour intensity was measured at 540 nm. Data obtained was represented as means ± SD, according to the following equation, percentage inhibition = [(Average absorbance of blank – average absorbance of the test)/(Average absorbance of blank)] *100. The results were recorded using a microplate reader, FluoStar Omega.
Microsoft Excel® was used to analyse the obtained results. The IC50 values were calculated using Graph pad Prism 6® by converting the concentrations to their logarithmic value and selecting the non-linear inhibitor regression equation (log (inhibitor) vs. normalised response – variable slope equation). The methods used and the final test report (R-SO7320) were obtained from Nawah Scientific.
In the case of `CCNC(=S)N/N=C/c1cn(S(C)(=O)=O)c2ccccc12` [Compound 4b, (E)-N-Ethyl-2{[1-(methylsulfonyl)-1H-indol-3yl]methylene}-hydrazinecarbothioamide], the “DPPH test results (µM trolox equivalent/ 1mg sample ± SD)” value is reported as 426.65 ± 28.02 µM trolox equivalent/ 1mg sample.

Same assay, conditions: 540 nm, relative to Trolox; values in text
In the case of `CCNC(=S)N/N=C/c1cn(S(C)(=O)=O)c2ccccc12` [Compound 4b, (E)-N-Ethyl-2{[1-(methylsulfonyl)-1H-indol-3yl]methylene}-hydrazinecarbothioamide], the DPPH anti-oxidant activity is reported as 426.65 µM Trolox equivalent/mg.

Test system: Escherichia coli (E. coli) (ATCC 25922)
Assay: Disc diffusion antimicrobial screening, E. coli
Assay type: cell-based
Conditions: 100 µg/disc
Protocol: (§1) All compounds were screened for their antimicrobial activity at the Microbiology and Immunology Department, Faculty of Pharmacy, Beni-Suef University. The antimicrobial activity screening was carried out using the disc diffusion method, as described earlier, with some adjustments.
(§2) For each indicator microbe, a solution of half McFarland turbidity was prepared in sterile saline, followed by surface streaking of the strains on Mueller-Hinton agar with a sterile cotton swab. Then, sterile filter paper discs (5 mm diameter) preloaded with 100 µg of each compound were applied to the surface of the pre-inoculated plates. Then, the plates were chilled at 4 °C for 100 min before being incubated overnight at the proper temperature for microbial growth. Finally, the diameter of the inhibition zones around each disc was measured to evaluate the antimicrobial activity of the compounds. Ciprofloxacin was used as a standard antibacterial agent at a concentration of 20 µg/disc. Furthermore, DMSO-loaded discs were used as a negative control.
With `CCNC(=S)N/N=C/c1cn(S(C)(=O)=O)c2ccccc12` [Compound 4b, (E)-N-Ethyl-2{[1-(methylsulfonyl)-1H-indol-3yl]methylene}-hydrazinecarbothioamide] the “antibacterial activity against E. coli” value was “selective antibacterial activity”.

Molecular target: T2, ovine COX-1 (Ovis aries, UniProt P05979)
T2 sequence (P05979 25-600): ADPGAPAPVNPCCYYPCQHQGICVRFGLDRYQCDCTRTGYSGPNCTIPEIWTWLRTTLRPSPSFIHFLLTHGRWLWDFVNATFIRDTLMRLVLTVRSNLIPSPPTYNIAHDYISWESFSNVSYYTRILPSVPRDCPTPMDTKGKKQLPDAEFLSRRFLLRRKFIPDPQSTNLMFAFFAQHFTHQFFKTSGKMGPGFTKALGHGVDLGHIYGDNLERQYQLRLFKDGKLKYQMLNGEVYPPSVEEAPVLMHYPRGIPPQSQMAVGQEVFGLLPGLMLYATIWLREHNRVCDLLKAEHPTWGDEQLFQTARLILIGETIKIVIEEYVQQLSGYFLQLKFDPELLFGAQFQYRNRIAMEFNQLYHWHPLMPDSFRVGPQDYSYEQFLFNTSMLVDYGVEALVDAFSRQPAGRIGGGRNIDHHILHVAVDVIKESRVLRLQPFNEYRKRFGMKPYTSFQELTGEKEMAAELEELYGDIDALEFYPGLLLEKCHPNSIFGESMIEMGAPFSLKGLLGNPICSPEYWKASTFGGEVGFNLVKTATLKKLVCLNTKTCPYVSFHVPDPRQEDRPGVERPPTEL
Assay: COX-1 inhibition, enzyme immune assay (EIA) kit
Conditions: IC50 COX-1
Text: Colorimetric enzyme immunoassay (EIA) kits were done to screen for the isozyme-specific inhibition.
`CCNC(=S)N/N=C/c1cn(S(C)(=O)=O)c2ccccc12` [Compound 4b, (E)-N-Ethyl-2{[1-(methylsulfonyl)-1H-indol-3yl]methylene}-hydrazinecarbothioamide] gave an IC50 of 28.5 ± 0.8 µM.

Same assay, conditions: conc 0.1 (μM)
With `CCNC(=S)N/N=C/c1cn(S(C)(=O)=O)c2ccccc12` [Compound 4b, (E)-N-Ethyl-2{[1-(methylsulfonyl)-1H-indol-3yl]methylene}-hydrazinecarbothioamide] the COX1 %inh was 3.74%.

Same assay, conditions: conc 1 (μM)
For `CCNC(=S)N/N=C/c1cn(S(C)(=O)=O)c2ccccc12` [Compound 4b, (E)-N-Ethyl-2{[1-(methylsulfonyl)-1H-indol-3yl]methylene}-hydrazinecarbothioamide], the COX1 %inh was 8.96%.

Same assay, conditions: conc 10 (μM)
Molecule `CCNC(=S)N/N=C/c1cn(S(C)(=O)=O)c2ccccc12` [Compound 4b, (E)-N-Ethyl-2{[1-(methylsulfonyl)-1H-indol-3yl]methylene}-hydrazinecarbothioamide] has a COX1 %inh of 27.4%.

Same assay, conditions: conc 100 (μM)
`CCNC(=S)N/N=C/c1cn(S(C)(=O)=O)c2ccccc12` [Compound 4b, (E)-N-Ethyl-2{[1-(methylsulfonyl)-1H-indol-3yl]methylene}-hydrazinecarbothioamide] gave a COX1 %inh of 73.3%.

Molecular target: T3, 5-LOX enzyme (Homo sapiens, UniProt P09917)
T3 construct: purchased Cayman Chemical K980-100
T3 sequence (P09917 1-674): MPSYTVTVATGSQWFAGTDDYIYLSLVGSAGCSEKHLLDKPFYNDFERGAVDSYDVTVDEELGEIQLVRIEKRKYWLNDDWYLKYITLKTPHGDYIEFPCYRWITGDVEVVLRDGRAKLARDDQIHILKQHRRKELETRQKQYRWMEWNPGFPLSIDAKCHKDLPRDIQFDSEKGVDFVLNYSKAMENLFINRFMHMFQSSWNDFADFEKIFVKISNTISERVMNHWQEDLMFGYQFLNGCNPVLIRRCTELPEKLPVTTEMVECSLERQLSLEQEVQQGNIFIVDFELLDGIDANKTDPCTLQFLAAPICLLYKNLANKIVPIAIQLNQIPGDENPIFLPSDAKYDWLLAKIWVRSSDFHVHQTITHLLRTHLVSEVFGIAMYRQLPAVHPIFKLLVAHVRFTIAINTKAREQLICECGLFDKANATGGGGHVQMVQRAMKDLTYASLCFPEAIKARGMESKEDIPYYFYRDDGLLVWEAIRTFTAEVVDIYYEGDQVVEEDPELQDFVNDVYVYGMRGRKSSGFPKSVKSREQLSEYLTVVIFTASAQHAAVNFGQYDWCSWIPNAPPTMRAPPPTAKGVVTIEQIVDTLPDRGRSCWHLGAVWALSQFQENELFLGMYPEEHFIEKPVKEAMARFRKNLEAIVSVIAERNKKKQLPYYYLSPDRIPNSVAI
Assay: 5-LOX inhibition, Human Lipoxygenase Inhibitor Screening Assay (EIA) kit
Assay type: biochemical
Conditions: not given
Protocol: The ability of the test compounds to inhibit the 5-LOX enzyme (IC50 value, μM) was detected using the Cayman Human Lipoxygenase Inhibitor Screening Assay (EIA) kit (catalog no. K980-100, Cayman Chemical). The IC50 values of test compounds were measured in µM according to the manufacturer’s instructions and reported method.
Molecule `CCNC(=S)N/N=C/c1cn(S(C)(=O)=O)c2ccccc12` [Compound 4b, (E)-N-Ethyl-2{[1-(methylsulfonyl)-1H-indol-3yl]methylene}-hydrazinecarbothioamide] has an IC50 of 29.2 ± 1.54 µM.

Same assay, conditions: conc 0.1 (μM)
`CCNC(=S)N/N=C/c1cn(S(C)(=O)=O)c2ccccc12` [Compound 4b, (E)-N-Ethyl-2{[1-(methylsulfonyl)-1H-indol-3yl]methylene}-hydrazinecarbothioamide] gave a 5-LOX %inh of 4.17%.

Same assay, conditions: conc 1 (μM)
For `CCNC(=S)N/N=C/c1cn(S(C)(=O)=O)c2ccccc12` [Compound 4b, (E)-N-Ethyl-2{[1-(methylsulfonyl)-1H-indol-3yl]methylene}-hydrazinecarbothioamide], the 5-LOX %inh was 11.6%.

Same assay, conditions: conc 10 (μM)
Molecule `CCNC(=S)N/N=C/c1cn(S(C)(=O)=O)c2ccccc12` [Compound 4b, (E)-N-Ethyl-2{[1-(methylsulfonyl)-1H-indol-3yl]methylene}-hydrazinecarbothioamide] has a 5-LOX %inh of 30.5%.

Same assay, conditions: conc 100 (μM)
`CCNC(=S)N/N=C/c1cn(S(C)(=O)=O)c2ccccc12` [Compound 4b, (E)-N-Ethyl-2{[1-(methylsulfonyl)-1H-indol-3yl]methylene}-hydrazinecarbothioamide] gave a 5-LOX %inh of 70.1%.

Test system: Salmonella enterica (ATCC 14028)
Assay: Disc diffusion antimicrobial screening, Salmonella enterica
Assay type: cell-based
Conditions: 100 µg/disc
Protocol: as §1, §2
In the case of `CCNC(=S)N/N=C/c1cn(S(C)(=O)=O)c2ccccc12` [Compound 4b, (E)-N-Ethyl-2{[1-(methylsulfonyl)-1H-indol-3yl]methylene}-hydrazinecarbothioamide], the “antibacterial activity against Salmonella enterica” value is reported as “selective antibacterial activity”.
